The data set in a line: physchem.
Protocol: P(O/W), as described in the present invention, refers to the partition coefficient between 1-octanol and water and is as defined for the value which is treated as information to judge accumulativeness in the bodies of fish and shellfish, in the course of registration of new compounds, to conform in the Law Concerning Examination and Regulation of Manufacture etc. of Chemical Substances (a Japanese law), and is represented by the formula below; P(O/W)=CO/CW wherein CO represents the concentration (in mg/L) of a compound in the 1-octanol layer, while CW represents the concentration (in mg/L) of the above compound in the water layer.
One may read the logP as the decadic logarithm of the partition coefficient of the neutral form, usually between octanol and water. Lower therefore signals lower lipophilicity. `COc1ccc([S+](c2ccc(OC)cc2)c2ccc(OC)cc2)cc1` [Compound S-1] came in with a logP of 0.1.

In turn, `COc1ccc([S+](c2ccc(C)cc2)c2ccc(C)cc2)cc1` [Compound S-3] yielded a logP of 0.12.

Compound `COc1ccc([S+](c2ccc(C)cc2)c2ccc(OC)cc2)cc1` [Compound S-2] displayed a logP of 0.12.

On to `COc1ccc([S+](c2ccc(OC)cc2)c2ccc(Oc3ccc(C)cc3)cc2)cc1` [Compound S-4], for which the logP amounted to 0.15.

The record behind these values is patent US20050219340A1, “Actinic ray curable ink composition, image forming method and ink-jet recording apparatus using the same” (KONICA MINOLTA MEDICAL & GRAPHIC, INC., priority 2004, published 2005).
